Tests used:
[1] = system: rats with Complete Freund's Adjuvant (CFA)-induced inflammation; assay: Intrathecal icilin in CFA inflammatory pain model (PWL, PWT); assay type: in vivo, rat; conditions: icilin 10 nmol, i.t.
Experimental: (§1) Pain models were generated under halothane anaesthesia (Zeneca, Cheshire, UK). For the chronic constriction injury (CCI) model of neuropathic pain, four ligatures were tied loosely to constrict the sciatic nerve at mid-thigh level (as described previously^[39]). An inflammatory pain model was generated by injecting 100 μl of Complete Freund's Adjuvant (CFA, Sigma-Aldrich Ltd) into the ventral surface of the right hindpaw^[39]. A model of peripheral demyelination-induced pain was produced by focal application of lysolecithin to the sciatic nerve^[40]. Peak behavioural sensitisation was observed post-surgically between days 10-16 for CCI, 1-3 for CFA, and 7-14 for lysolecithin, when pharmacological and electrophysiological experiments and tissue removal were conducted.
(§2) Thermal sensitivity was assessed by measuring paw withdrawal latency (PWL, s) in response to a noxious thermal stimulus (Hargreaves' thermal stimulator, Linton Instrumentation, Diss, UK) directed to the hindpaw mid-plantar glabrous surface. Mechanical sensitivity was recorded as the paw withdrawal threshold (PWT, mN/mm^2) to calibrated von Frey filaments (Stoelting, Ill., US), as previously described^[39]. Sensitivity to noxious cold was assessed by placing animals in a waterbath with an aluminium floor containing 1 cm deep 4° C. water and counting the time the paw was held suspended over a 20 s period.
(§3) The following drugs were applied intrathecally in a 50 μl volume of saline-based vehicle at 37° C.: icilin (2.5-200 μM in saline with 0.2% dimethylformamide, DMF), LY 341495 (100 μM in saline), UBP 1112 (200 μM in saline), 2R,4R-APDC ((2R, 4R)-4-aminopyrrolidine-2,4-dicarboxylate), 300 μM in saline), ACPT-III ((1R,3R,4S)-1-aminocyclopentane-1,3,4-tricarboxylic acid), 3 mM in saline), AP-4, ((L-(1)-2-amino-4-phosphonobutyric acid), 3 mM in saline), naloxone (0.5 mM in saline), NMDA (75 μM in saline) and ACPC (1-aminocyclopropanecarboxylic acid, 15 μM in saline) (Tocris Cookson, Bristol, UK), (−)-menthol (1R,2S,5R-(−)-menthol, 4 mM in saline), cinnamaldehyde (1.5 mM in saline) and Ruthenium Red (5 μM in saline) (Sigma-Aldrich Co. Ltd, UK) and allicin (0.5 mM in saline with 0.5% DMF) and diallyl disulphide (DADS, 1 mM in saline with 0.5% DMF) (LKT Laboratories Inc., St Paul, Minn., USA). […] Behavioural reflex testing commenced 15 min following injection to allow recovery from anaesthesia^[40,41,42] and continued every 5 min thereafter until readings returned to baseline levels (n=6 in each case). […]
(§4) The TRPM8 channel activators, icilin and (−)-menthol were tested in CCI and naïve animals. The effects of icilin were additionally assessed in animals with CFA-induced inflammation or with lysolecithin-induced demyelination. […]

[2] = system: rats with lysolecithin-induced demyelination of sciatic nerve; assay: Intrathecal icilin in lysolecithin demyelination-induced pain model (PWL, PWT); assay type: in vivo, rat; conditions: icilin 10 nmol, i.t.
Experimental: as §1, §2, §3, §4

[3] = system: rats sensitised by the TRPA1 activator cinnamaldehyde; assay: Cinnamaldehyde-induced sensitisation and its reversal by icilin (PWL, PWT); assay type: in vivo, rat; conditions: for Mean % reversal of mechanical sensitisation (after 15-30 mins) / Mean % reversal of thermal sensitisation (after 15-30 mins) / PWL (s) difference from control (+ icilin) / PWT (mN/mm^2) difference from control (+ icilin): icilin 10 nmol, i.t.
Experimental: as §2
The following drugs were applied intrathecally in a 50 μl volume of saline-based vehicle at 37° C.: icilin (2.5-200 μM in saline with 0.2% dimethylformamide, DMF), LY 341495 (100 μM in saline), UBP 1112 (200 μM in saline), 2R,4R-APDC ((2R, 4R)-4-aminopyrrolidine-2,4-dicarboxylate), 300 μM in saline), ACPT-III ((1R,3R,4S)-1-aminocyclopentane-1,3,4-tricarboxylic acid), 3 mM in saline), AP-4, ((L-(1)-2-amino-4-phosphonobutyric acid), 3 mM in saline), naloxone (0.5 mM in saline), NMDA (75 μM in saline) and ACPC (1-aminocyclopropanecarboxylic acid, 15 μM in saline) (Tocris Cookson, Bristol, UK), (−)-menthol (1R,2S,5R-(−)-menthol, 4 mM in saline), cinnamaldehyde (1.5 mM in saline) and Ruthenium Red (5 μM in saline) (Sigma-Aldrich Co. Ltd, UK) and allicin (0.5 mM in saline with 0.5% DMF) and diallyl disulphide (DADS, 1 mM in saline with 0.5% DMF) (LKT Laboratories Inc., St Paul, Minn., USA). Drugs were injected into the L5/6 intrathecal space under brief halothane anaesthesia, using a 25-gauge needle microsyringe (BD Biosciences, Oxford, UK), as described previously^[39] in animals that were at peak levels of behavioural sensitisation. Behavioural reflex testing commenced 15 min following injection to allow recovery from anaesthesia^[40,41,42] and continued every 5 min thereafter until readings returned to baseline levels (n=6 in each case). We, and others^[40,41,42] find complete recovery from anaesthetic by 15 minutes. All appropriate controls were carried out to eliminate the possibility of effects due to vehicle or to injection procedure.
The TRPM8 channel activators, icilin and (−)-menthol were tested in CCI and naïve animals. The effects of icilin were additionally assessed in animals with CFA-induced inflammation or with lysolecithin-induced demyelination. Icilin was also co-administered with the μ-opioid receptor antagonist naloxone, the Group II metabotropic glutamate receptor (mGluR) antagonist, LY 341495, or the Group III mGluR antagonist, UBP 1112. The effects of these antagonists alone as well as effects of the Group II mGluR agonist, 2R,4R-APDC and the Group III mGluR agonists, ACPT-III and AP-4, were assessed in CCI animals. The TRPA1 channel activator, cinnamaldehyde, alone and with icilin, was tested in CCI animals and in naïve animals. Further TRPA1 channel activators, allicin and diallyl disulphide were assessed in naïve animals. Both icilin and cinnamaldehyde effects in CCI animals were also investigated in the additional presence of Ruthenium Red.
Icilin was applied at concentrations of 2.5-500 μM (in water with 0.2% DMF), by placing CCI or naïve rats unrestrained for 5 min in a 1 cm deep waterbath (sufficient to cover paws), which was thermostatically controlled to a temperature of 30° C., or by very lightly anaesthetising rats and immersing hindpaws in small tubes containing 5 ml icilin (500 μM-5 mM, with a vehicle of 45% dimethylformamide in 0.2% aqueous Tween 80) for 5 min, followed by sensory testing for 60-80 mins. The effects of (−)-menthol and its stereoisomers isomenthol (1S,2R,5R-menthol,) and (+)-menthol (1S,2R,5S(+)-menthol) (4-16 mM in 80% ethanol) were also assessed. Relevant vehicles were always assessed in similar experiments. As a contrast, the effect of cinnamaldehyde (1.5 mM in water) and the effect of cinnamaldehyde with additional icilin (80 μM in water with 0.2% DMF) were assessed in naïve animals. […]

[4] = system: CCI model of neuropathic pain; assay: Cold allodynia in CCI model, Peltier controlled footplate; assay type: in vivo, rat; conditions: icilin 200 μM topical
Experimental: In the CCI model of neuropathic pain, cold allodynia was assessed by scoring the number of paw flick-associated paw withdrawals from a Peltier controlled footplate that was reduced in temperature from control (30° C.) to mild cooling (20° C.). Icilin (200 μM) was applied topically (as in FIG. 1). Values are shown as means±SEM, ipsilateral (⋄) to nerve injury. † Indicates statistically significant reversal of cool allodynia.

[5] = system: model of cancer-induced bone pain; assay: Cancer-induced bone pain model (von Frey, rotarod paw lifts); assay type: in vivo; conditions: topical icilin
From the text: The model of cancer-induced bone pain was set up according to Medhurst et al., 2002 Pain 96: 129-40.

O=C1NC(c2cccc([N+](=O)[O-])c2)=CCN1c1ccccc1O [icilin, 1-(2′-hydroxyphenyl)-4-(3″-nitrophenyl)-1,2,3,6-tetrahydropyrimidin-2-one]
Mean % reversal of mechanical sensitisation (after 15-30 mins) [1]: 42.6 ± 2.8%
Mean % reversal of thermal sensitisation (after 15-30 mins) [1]: 66.0 ± 7.5%
PWL (s) difference from control (+ icilin) [1]: 1.6 ± 1.6 s
PWT (mN/mm^2) difference from control (+ icilin) [1]: 1707.6 ± 149.9 mN/mm^2
Mean % reversal of mechanical sensitisation (after 15-30 mins) [2]: 63.3 ± 6.4%
Mean % reversal of thermal sensitisation (after 15-30 mins) [2]: 69.2 ± 5.1%
PWL (s) difference from control (+ icilin) [2]: 2.4 ± 1.2 s
PWT (mN/mm^2) difference from control (+ icilin) [2]: 1102.5 ± 422.5 mN/mm^2
Mean % reversal of mechanical sensitisation (after 15-30 mins) ([3]; Cinnamaldehyde (intrathecal)): 92.6 ± 2.8%
Mean % reversal of thermal sensitisation (after 15-30 mins) ([3]; Cinnamaldehyde (intrathecal)): 91.5 ± 4.1%
PWL (s) difference from control (+ icilin) ([3]; Cinnamaldehyde (intrathecal)): 0.5 ± 1.8 s
PWT (mN/mm^2) difference from control (+ icilin) ([3]; Cinnamaldehyde (intrathecal)): 150.3 ± 125.2 mN/mm^2
Mean % reversal of mechanical sensitisation (after 15-30 mins) ([3]; Cinnamaldehyde (topical)): 100.0 ± 0.0%
Mean % reversal of thermal sensitisation (after 15-30 mins) ([3]; Cinnamaldehyde (topical)): 92.0 ± 6.1%
PWL (s) difference from control (+ icilin) ([3]; Cinnamaldehyde (topical)): 0.4 ± 1.6 s
PWT (mN/mm^2) difference from control (+ icilin) ([3]; Cinnamaldehyde (topical)): 0.0 ± 0.0 mN/mm^2
effect on sensitisation by topical cinnamaldehyde ([3]; topical icilin 200 μM, data not shown): reversed
analgesia against cold allodynia (paw withdrawals, footplate 30° C. to 20° C.) [4]: provides analgesia against the cold allodynia
analgesia in cancer-induced bone pain (mechanical allodynia, movement-evoked pain) [5]: causes analgesia

Source: patent publication US20100137344A1, “INDUCTION OF ANALGESIA IN NEUROPATHIC PAIN” (University Court of the University of Edinburgh, priority 2006, published 2010)
